Key:
[1] = target: T1, C-C chemokine receptor type 4 (Homo sapiens, UniProt P51679); test: Antagonist activity at recombinant human CCR4 expressed in CHO-K1 cells assessed as inhibition of CCL22 induced Ca2+ mobilization after 2 hrs by FMAT based fluorescence assay; type: functional, cell-based
T1 sequence (P51679 whole entry): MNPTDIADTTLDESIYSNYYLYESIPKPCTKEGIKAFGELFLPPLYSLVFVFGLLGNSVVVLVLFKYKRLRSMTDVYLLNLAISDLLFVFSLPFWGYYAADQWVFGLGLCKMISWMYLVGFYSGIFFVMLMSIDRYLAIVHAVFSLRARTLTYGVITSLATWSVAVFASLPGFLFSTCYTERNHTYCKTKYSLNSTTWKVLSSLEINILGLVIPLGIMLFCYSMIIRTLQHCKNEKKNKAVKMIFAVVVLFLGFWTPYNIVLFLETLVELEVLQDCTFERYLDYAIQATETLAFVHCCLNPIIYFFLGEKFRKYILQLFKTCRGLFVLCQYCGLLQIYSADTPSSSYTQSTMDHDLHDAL

[2] = Protein binding in human plasma; type: ADME, cell-free; conditions: read-out: PPB (converted)
[3] = Lipophilicity, log P of the compound; type: physicochemical; conditions: octanol/water
[4] = target: T2, C-C chemokine receptor type 4 (Homo sapiens) (UniProt P51679); test: Antagonist activity at recombinant human CCR4 expressed in CHO-K1 cells assessed as inhibition of CCL22 induced Ca2+ mobilization at 10 uM after 2 hrs by FMAT based fluorescence assay relative to control; type: functional, cell-based
T2 sequence (whole entry): T1 sequence (P51679 whole entry)

| SMILES | IC50 [1] [nM] | fraction unbound [2] | logP [3] | inhibition [4] [%] |
| --- | --- | --- | --- | --- |
| COc1nc(Cl)cnc1NS(=O)(=O)c1cccc(Cl)c1C#N | 63.1 | – | – | – |
| COc1nc(Br)cnc1NS(=O)(=O)c1ccc(Cl)cc1 | 126 | – | – | – |
| COc1nc(Cl)cnc1NS(=O)(=O)c1cccc(Cl)c1F | 79.4 | – | – | – |
| COc1nc(CO)cnc1NS(=O)(=O)c1cccc(Cl)c1Cl | 25.1 | 0.038 | 2.1 | – |
| COc1ncc(C)nc1NS(=O)(=O)c1cccc(Cl)c1Cl | 50.1 | < 0.002 | – | – |
| CCCCS(=O)(=O)Nc1ncc(Cl)nc1OC | 3160 | – | – | – |
| CSc1nc(Br)cnc1NS(=O)(=O)c1ccc(Cl)s1 | 3160 | – | – | – |
| CCc1nc(Br)cnc1NS(=O)(=O)c1ccc(Cl)s1 | 5010 | – | – | – |
| COc1nc(Br)cnc1NS(=O)(=O)c1cc(Cl)cc(Cl)c1 | 5010 | – | – | – |
| O=S(=O)(Nc1ncc(Cl)nc1OCc1ccccc1CO)c1cccc(Cl)c1Cl | – | < 0.001 | – | – |
| COc1nc(Br)cnc1NS(=O)(=O)c1cccc(Cl)c1 | 100 | – | – | – |
| CCOc1nc(Br)cnc1NS(=O)(=O)c1ccc(Cl)s1 | 200 | – | – | – |
| COc1nc(Br)cnc1NS(=O)(=O)c1cccs1 | 631 | – | – | – |
| COc1nc(Br)cnc1NS(=O)(=O)c1sc(Cl)cc1Br | 39.8 | – | – | – |
| CC(C)(C)COc1nc(Cl)cnc1NS(=O)(=O)c1cccc(Cl)c1Cl | 7940 | – | – | – |
| COc1nc(Br)cnc1NS(=O)(=O)c1c(Cl)cccc1Cl | 631 | – | – | – |

| SMILES | IC50 [1] [nM] | fraction unbound [2] | logP [3] | inhibition [4] [%] |
| --- | --- | --- | --- | --- |
| COc1nc(Br)cnc1NS(=O)(=O)c1ccc(Cl)c(Cl)c1 | 200 | – | – | – |
| COc1nc(Br)cnc1NS(=O)(=O)c1cc(Cl)ccc1Cl | 3160 | – | – | – |
| CNc1nc(Br)cnc1NS(=O)(=O)c1ccc(Cl)s1 | > 10000 | – | – | 44 |
| COc1nc(Br)cnc1NS(=O)(=O)c1ccccc1Cl | 158 | – | – | – |
| COc1nc(Br)cnc1NS(=O)(=O)c1ccccc1 | 794 | – | – | – |
| COc1nc(Br)cnc1NS(=O)(=O)c1cc(Cl)c(Cl)s1 | 1000 | – | – | – |
| COc1nc(Br)cnc1NS(=O)(=O)c1ccsc1 | 1260 | – | – | – |
| COc1nc(Br)cnc1NS(=O)(=O)c1ccc(Cl)cc1Cl | 126 | – | – | – |
| COc1nc(Cl)cnc1NS(=O)(=O)c1ccnc(Cl)c1Cl | 10000 | – | – | – |
| COc1nc(S(C)(=O)=O)cnc1NS(=O)(=O)c1cccc(Cl)c1Cl | 5010 | – | – | – |
| COc1nc(CO)c(C)nc1NS(=O)(=O)c1cccc(Cl)c1Cl | 39.8 | 0.013 | 2.4 | – |
| COc1nc(C)cnc1NS(=O)(=O)c1cccc(Cl)c1Cl | 39.8 | 0.0035 | 3 | – |
| COc1nc(Cl)cnc1NS(=O)(=O)c1cccc(Cl)c1Cl | – | < 0.001 | 4.1 | – |
| COc1nc(Br)cnc1NS(=O)(=O)c1sccc1-c1ccccc1 | 1000 | – | – | – |
| COc1nc(Cl)cnc1NS(=O)(=O)c1cccc(C(F)(F)F)c1Cl | 63.1 | – | – | – |

Continued by falling IC50 [1], values first:

| IC50 [1] [nM] | fraction unbound [2] | logP [3] | inhibition [4] [%] | SMILES |
| --- | --- | --- | --- | --- |
| 20 | 0.025 | 2.8 | – | COc1nccnc1NS(=O)(=O)c1scc(Cl)c1Cl |
| 20 | – | – | – | COc1nc(Cl)cnc1NS(=O)(=O)c1cccc(Cl)c1C |
| 15.8 | – | – | – | C=CCOc1nc(Cl)cnc1NS(=O)(=O)c1cccc(Cl)c1Cl |
| 15.8 | – | – | – | COc1nc(Cl)cnc1NS(=O)(=O)c1cccc(F)c1Cl |
| 12.6 | < 0.001 | 4.1 | – | CCOc1cnc(NS(=O)(=O)c2cccc(Cl)c2Cl)c(OC)n1 |
| 12.6 | < 0.001 | – | – | O=S(=O)(Nc1ncc(Cl)nc1OCc1cncnc1)c1cccc(Cl)c1Cl |
| 10 | < 0.001 | – | – | COc1nc(Br)cnc1NS(=O)(=O)c1cccc(Cl)c1Cl |
| 7.94 | < 0.001 | 4.5 | – | COc1ncc(Cl)nc1NS(=O)(=O)c1cccc(Cl)c1Cl |
| 7.94 | – | – | – | COc1nc(Cl)cnc1NS(=O)(=O)c1scc(Cl)c1Cl |
| 3.98 | < 0.002 | 3.3 | – | COc1ncc(F)nc1NS(=O)(=O)c1cccc(Cl)c1Cl |
| 3.98 | < 0.001 | – | – | O=S(=O)(Nc1ncc(Cl)nc1OCc1cccc(Br)c1)c1cccc(Cl)c1Cl |
| 3.98 | 0.004 | 3.2 | – | COc1nc(CO)c(Cl)nc1NS(=O)(=O)c1cccc(Cl)c1Cl |
| 2.51 | – | – | – | C#CCOc1nc(Cl)cnc1NS(=O)(=O)c1cccc(Cl)c1Cl |
| 1 | < 0.002 | – | – | COc1nc(F)c(F)nc1NS(=O)(=O)c1cccc(Cl)c1Cl |
| 0.631 | < 0.001 | – | – | O=S(=O)(Nc1ncc(Cl)nc1OCc1cccnc1)c1cccc(Cl)c1Cl |
